From patent EP2060564A1, “Non-peptidic promoters of apoptosis” (Ludwig-Maximilians-Universität München, priority 2007, dated 2009) come the findings set out here.

Several values for one entry are separate records, joined by “and”; a condition that tells them apart may be missing. Equal values may be shown once.

The test system of assay [1] is Human leukemia Jurkat T cells. The experiment in a line: Quantification of apoptosis (Nicoletti, PI staining, flow cytometry) in Jurkat cells. It is filed as cell-based. To be noted: mean value and standard deviation (C.I.95), n = 3. As to the method: Cell Culture. Human leukemia Jurkat T cells (clone J16), Jurkat T-cells stably transfected with either empty vector (Jurkat vector, pBabe Jurkat) or XIAP (Jurkat-XIAP) as well as the BIR-3 domain only (BIR-3-sp-RING-Jurkat) (kindly provided by Dr. Colin Duckett at the University of Michigan) were cultured (37°C and 5% CO2 in RPMI 1640 containing 2 mM L-glutamine (PAN Biotech, Aidenbach, Germany) supplemented with 10% FCS gold (PAA Laboratories, Cölbe, Germany) and 1% Pyruvat (Sigma Deisenhofen, Germany).
Detection an Quantification of Apoptosis. Quantification of apoptosis was performed according to Nicoletti et al. (J Immunol. Methods (1991) 139, 271-279). Briefly, cells were incubated for 24 h in a hypotonic buffer (0.1% sodium citrate, 0.1% Triton-X-100 and 50 µg/ml PI) and analyzed by flow cytometry on a FACSCalibur (Becton Dickinson, Heidelberg, Germany). Nuclei to the left of the G1-peak containing hypodiploid DNA were considered apoptotic.
Compounds were first tested for their apoptotic potential in Jurkat cells alone as well as in combination with sub-optimal concentrations of etoposide. […] Similar results were obtained for compound II-1 (55.8% apoptotic cells). Table 1: Percentage of apoptotic Jurkat cells measured after application of medium control, 0.75 µM etoposide, 25 µM test substance, and a mixture of 0.75 µM etoposide and 25 µM test substance, respectively.a
(In general: In flow cytometry, cells or beads pass a laser one at a time.)

Assay [2] relates to caspase-9, caspase-3 and PARP. The assay is described as follows: Western Blot analysis of caspase-9, caspase-3 and PARP cleavage. It is filed as cell-based, Human. To be noted: 25µM compound with 500nM etoposide, wild type Jurkat cells, time dependent (Figure 4). The method, then: Figure 4: Compound I-1 activates initiator caspases and induces PARP cleavage. Wild type Jurkat cells were left untreated or treated with 25µM of compound I-1, 500nM etoposide or a combination of both for the indicated time periods. Expression of caspase-9, caspase-3 and PARP was assessed by Western Blot analysis. Cleavage products are indicated by arrows. Ponceau S was used as loading control. A representative experiment out of three independent experiments is shown.
Western Blot Analysis. Cells were collected by centrifugation, washed with ice-cold PBS and lysed in 1% Triton X-100, 0.15 M NaCl and 30 mM Tris-HCl pH 7.5 with the protease inhibitor complete™ (Roche, Mannheim, Germany) for 30 min. Lysates were centrifuge at 10,000xg for 10 min at 4°C. Equal amounts of protein were separated by SDS-PAGE (12% for XIAP) transferred to polyvinylidene difluoride membranes (Immobilon-P™, Millipore, Eschborn, Germany). Equal protein loading was controlled by coomassie staining of gels. Membranes were blocked with 5% fat-free milk powder in PBS containing 0.05% Tween-20 (1 h) and incubated with specific antibodies against XIAP (mouse antibody IgG1, clone 28, BD Transduction Laboratories, Heidelberg, Germany) overnight at 4°C. […]

Assay [3] addresses T1, XIAP (Homo sapiens, UniProt P98170).
T1 construct: endogenous in cells
The experiment in a line: Western Blot analysis of XIAP protein level. In kind it is cell-based. To be noted: 25µM compound alone as well as in combination with 500nM etoposide; 16 and 24 h (Figure 5). As to the method:
Figure 5: XIAP protein level is reduced by compound I-1. Cells were left untreated (CO) or treated with 25µM of compound I-1, 500nM etoposide or with combination of both for the indicated time periods. XIAP protein level was detected by Western Blot analysis. Ponceau S was used as loading control. A representative experiment out of three independent experiments is shown.
Western Blot Analysis. Cells were collected by centrifugation, washed with ice-cold PBS and lysed in 1% Triton X-100, 0.15 M NaCl and 30 mM Tris-HCl pH 7.5 with the protease inhibitor complete™ (Roche, Mannheim, Germany) for 30 min. Lysates were centrifuge at 10,000xg for 10 min at 4°C. Equal amounts of protein were separated by SDS-PAGE (12% for XIAP) transferred to polyvinylidene difluoride membranes (Immobilon-P™, Millipore, Eschborn, Germany). Equal protein loading was controlled by coomassie staining of gels. Membranes were blocked with 5% fat-free milk powder in PBS containing 0.05% Tween-20 (1 h) and incubated with specific antibodies against XIAP (mouse antibody IgG1, clone 28, BD Transduction Laboratories, Heidelberg, Germany) overnight at 4°C. Specific proteins were visualized by secondary antibodies conjugated to horseradish peroxidase and the ECL Plus™ Western Blotting detection reagent (Amersham Biosciences, Freiburg, Germany). […]
A general note: In western blotting, separated proteins are transferred to a membrane and probed.

The subject of assay [4] is caspase-9. The experiment in a line: Caspase-9 activity assay (Ac-LEHD-AFC substrate). To be noted: 25µM compound with 500nM etoposide, wild type Jurkat cells (Figure 3). It is filed as cell-based, Human. The method, then: (§1) Figure 2: Compound I-1 sensitizes to a reduction of etoposide-induced clonogenic survival. Wild type Jurkat cells were left untreated (A) or treated for 1h with 25µM of compound I-1 (B), 500nM etoposide (C) or a combination of both (D). After replacement into fresh methylcellulose medium, cells were incubated for 7 days. Afterwards colony number was counted (E). Bars, the mean ± SE of three independent experiments. *** P<0.001 (Anova/Bonferroni). Figure 3: Compound I-1 increases initiator caspase activities. Wild type Jurkat cells were left untreated or treated with 25µM of compound I-1, 500nM etoposide or a combination of both for the indicated time periods. Fluorescence measurements were performed for caspase-9 (A) and caspase-3 (B). Protein concentration was used for normalization. Bars, the mean ± SE of three independent experiments performed in triplicate. *** P<0.001 (Anova/Bonferroni).
(§2) Caspase-9/3 activity assay. Caspase-9/3 activity was measured using caspase-9(Ac-LEHD-AFC) or caspase 3(Ac-DEVD-AFC) substrates (both from Bachem AG, Bubendorf, Germany). […] The reading was performed in a plate-reading multifunction photometer (SPECTRAFLUOR PLUS, Tecan, Crailsheim, Germany). The activity was calculated from the difference between fluorescence in the 0 point and after 1h (for caspase-3) or after 3h (for caspase-9). […]

Assay [5] relates to caspase-3. The experiment in a line: Caspase-3 activity assay (Ac-DEVD-AFC substrate). It is filed as cell-based, Human. To be noted: 25µM compound with 500nM etoposide, wild type Jurkat cells (Figure 3). As to the method: as §1, §2
Assay [6] concerns Jurkat cells overexpressing full-length XIAP or BIR-3/Ring. The assay is described as follows: Quantification of apoptosis in Jurkat cell lines overexpressing XIAP or BIR-3/Ring. In kind it is cell-based, Human. To be noted: wild type Jurkat cells and Jurkat cells overexpressing full-length XIAP or BIR-3/Ring; with low dose of etoposide (Figure 1). The method, then:
Figure 1: Compound I-1 sensitizes different Jurkat cell lines towards etoposide-induced apoptosis. Compound I-1 was tested in wildtype human leukemia Jurkat T cells (A), as well as in Jurkat cells stably transfected with empty vector (B), full-length XIAP overexpressing Jurkat cells (C) or the […] domain overexpressing Jurkat cells (D). Cell death was evaluated as described under "Materials and Methods". Bars, the mean ± SE of three independent experiments performed in triplicate. *** P<0.001 (Anova/Bonferroni), n.s., not significant.
Cell Culture. […]
Detection an Quantification of Apoptosis. Quantification of apoptosis was performed according to Nicoletti et al. (J Immunol. Methods (1991) 139, 271-279). Briefly, cells were incubated for 24 h in a hypotonic buffer (0.1% sodium citrate, 0.1% Triton-X-100 and 50 µg/ml PI) and analyzed by flow cytometry on a FACSCalibur (Becton Dickinson, Heidelberg, Germany). […]

Assay [7] has as its system Wildtype Jurkat cells. The experiment in a line: Clonogenic assay. It is filed as cell-based, Human. To be noted: 1h with 25µM compound and 500nM etoposide; colonies scored after 7 days (Figure 2). As to the method: as §1
Clonogenic assay. Wildtype Jurkat cells were left untreated or treated for 1h with 25µM test compound, 500nM etoposide or a combination of both. Subsequently, cells were washed with PBS and resuspended in culture medium (5x10^5 cells/ml). Cell suspensions were diluted 1:10 with methylcellulose (0.52%) medium containing 40% FCS. Cells were seeded in 96-well plates (100 µl) and colonies were scored after 7 days of culture.

Setting [8] is: Etoposide 0.75µM and Substance 25µM.

T1 sequence (P98170 whole entry): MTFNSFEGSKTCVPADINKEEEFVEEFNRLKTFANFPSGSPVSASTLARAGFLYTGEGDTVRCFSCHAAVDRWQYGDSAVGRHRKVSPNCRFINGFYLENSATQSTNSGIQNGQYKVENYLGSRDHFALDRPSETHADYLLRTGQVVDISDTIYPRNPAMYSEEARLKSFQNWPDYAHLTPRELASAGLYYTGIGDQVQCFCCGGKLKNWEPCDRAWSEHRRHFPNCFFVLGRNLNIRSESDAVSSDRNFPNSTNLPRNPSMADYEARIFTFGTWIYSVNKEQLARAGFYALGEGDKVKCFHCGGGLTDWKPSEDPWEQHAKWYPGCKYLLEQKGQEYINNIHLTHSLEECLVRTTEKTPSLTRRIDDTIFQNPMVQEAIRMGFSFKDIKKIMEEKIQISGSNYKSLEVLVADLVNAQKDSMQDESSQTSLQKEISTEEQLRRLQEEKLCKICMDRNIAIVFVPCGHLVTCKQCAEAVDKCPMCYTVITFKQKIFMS

On to `NNC(=O)CNC(c1ccccc1)c1cc(Br)ccc1NC(=O)c1ccccc1Br` (centres unmarked) [II-1], for which the “Percentage of apoptotic Jurkat cells” value in assay [1] (setting [8]) is 55.8% and 55.82±12.23%; in assay [1] (Substance 25µM alone), 10.69±1.25%.
In the case of `CCc1cccc(CC)c1NC(=O)CN1CCC(NC(=O)c2cccc(F)c2)CC1` [Compound I-1], the “cleavage of caspase-9 and -3 proforms as well as PARP induced by etoposide” value in assay [2] is “strong impact of compound I-1 on cleavage of caspase-9 and -3 proforms as well as PARP”. For the same compound, the XIAP protein level result in assay [3] was “able to reduce XIAP protein after 16 and 24 h”. Besides, the “Percentage of apoptotic Jurkat cells” value in assay [1] (setting [8]) was 65.7% and 65.74±6.0%; in assay [1] (Substance 25µM alone) it was 13.16±2.28%. The “caspase-9 activity induced by etoposide” value in assay [4] is given as “significantly increased”. In assay [5], the “caspase-3 activity induced by etoposide” value is given as “significantly increased”. The “apoptosis induced by subtoxic concentrations of etoposide” value in assay [6] is “potentiates apoptosis induced by subtoxic concentrations of etoposide”. Also, the “clonogenic survival of etoposide treated Jurkat cells” value in assay [7] is given as “sensitizes for reduction of clonogenic survival of etoposide treated Jurkat cells”.
For `COc1cc([C@@H]2c3cc4c(cc3[C@@H](O[C@@H]3O[C@@H]5CO[C@@H](C)O[C@H]5[C@H](O)[C@H]3O)[C@H]3COC(=O)[C@H]23)OCO4)cc(OC)c1O` [Etoposide, reference compound], the “Percentage of apoptotic Jurkat cells” value in assay [1] (Etoposide 0.75µM alone) was 30.66±9.89% and 31.31±2.74%.
